What all share (assay type): cell-based
Experiment [1] concerns environmental Micrococcus Luteus. In words: Full AET challenge test. To be noted: spike 10^5-10^6 CFU/ml, room temperature. The source says: (§1) A challenge test was initiated to investigate whether the formulation could prevent microorganisms from proliferating. The challenge test consisted of challenging the formulation with a prescribed inoculum of microorganisms. The inoculated formulation was then stored at room temperature and at specified time intervals a sample was withdrawn to count the microorganisms in the sample.
(§2) The formulations listed in Table 3 were additionally subjected to a Full AET challenge, with results for the individual formulations are shown in Tables 5-8, below. Additionally, Table 9 below, provides results for a Full AET challenge of a reference formulation containing 0.00 mg/mL S-ketamine hydrochloride, denatonium benzoate (to mimic the taste of the S-ketamine HCl formulation(s)), and adjusted to pH 5.21 with 1N NaOH.

For experiment [2], the system named is environmental isolate Staphylococcus haemolyticus. In words: Microbial challenge test. The note with it: spike 10^5-10^6 CFU/ml, room temperature.
Excerpt: as §1

In another experiment the test system is Pseudomonas aeruginosa. In words: Microbial challenge test / Full AET challenge test. To be noted: spike 10^5-10^6 CFU/ml, room temperature.
Excerpt: as §1, §2

The test system of another experiment is Aspergillus brasiliensis. As to the kind of experiment: Microbial challenge test / Full AET challenge test. To be noted: spike 10^5-10^6 CFU/ml, 28 days of incubation at room temperature.
Excerpt: as §1, §2

The next experiment deals with Candida albicans. In words: Microbial challenge test / Full AET challenge test. To be noted: spike 10^5-10^6 CFU/ml, room temperature.
Excerpt: as §1, §2

The subject of a further experiment is Staphylococcus aureus. As to the kind of experiment: Microbial challenge test / Full AET challenge test. To be noted: spike 10^5-10^6 CFU/ml, room temperature.
Excerpt: as §1, §2

The test system of the next experiment is Escherichia coli. As to the kind of experiment: Microbial challenge test / Full AET challenge test. To be noted: spike 10^5-10^6 CFU/ml, room temperature.
Excerpt: as §1, §2

One compound from patent US20140275276A1, “PHARMACEUTICAL COMPOSITION OF S-KETAMINE HYDROCHLORIDE” (JANSSEN PHARMACEUTICA NV, priority 2013, published 2014) can be followed below.

Regarding `CN[C@]1(c2ccccc2Cl)CCCCC1=O.Cl` [S-ketamine hydrochloride, (S)-2-(2-chlorophenyl)-2-(methylamino)cyclohexanone hydrochloride], the “Antimicrobial effect in words (change of the original spike)” value in experiment [1] was “strong antimicrobial properties”; in experiment [2], “strong antimicrobial properties”; with Pseudomonas aeruginosa it was “strong antimicrobial properties”; in the experiment with Aspergillus brasiliensis, “some inhibitory activity”; with Candida albicans, “strong antimicrobial properties”; with Staphylococcus aureus, “strong antimicrobial properties”. In the experiment with Escherichia coli, the “Antimicrobial effect in words (change of the original spike)” value is “strong antimicrobial properties”.
